Assay results taken from patent US11234979B2, “Heteroaryl compounds as muscarinic M1 receptor positive allosteric modulators” (SUVEN LIFE SCIENCES LIMITED, priority 2017, dated 2022).

Assays:
[1] = target: T1, recombinant human Muscarinic M1 receptor (Homo sapiens, UniProt P11229); experiment: Allosteric potency EC50 for Muscarinic M1 receptor, CHO pCRE-Luc reporter assay with EC20 of acetylcholine; type: cell-based; conditions: CHO cells, in presence of EC20 of acetylcholine, 4 hours
T1 construct: expressed in transfected cells
T1 sequence (P11229 1-460): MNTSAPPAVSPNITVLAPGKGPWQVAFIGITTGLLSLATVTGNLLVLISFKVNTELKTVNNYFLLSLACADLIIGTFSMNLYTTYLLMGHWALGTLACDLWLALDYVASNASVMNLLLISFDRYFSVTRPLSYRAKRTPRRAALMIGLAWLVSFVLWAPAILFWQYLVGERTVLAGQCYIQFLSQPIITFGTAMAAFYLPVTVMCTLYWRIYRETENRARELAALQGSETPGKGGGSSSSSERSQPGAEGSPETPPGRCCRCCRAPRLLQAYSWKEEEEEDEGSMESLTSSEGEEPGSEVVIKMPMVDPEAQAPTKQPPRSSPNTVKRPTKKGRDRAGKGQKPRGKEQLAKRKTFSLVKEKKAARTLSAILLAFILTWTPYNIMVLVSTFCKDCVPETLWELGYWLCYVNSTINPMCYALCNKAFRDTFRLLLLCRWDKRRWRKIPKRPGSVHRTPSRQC
Protocol: Determination of Allosteric Potency EC50 Values for Muscarinic M1 Receptor:
A stable CHO cell line expressing recombinant human Muscarinic M1 receptor and pCRE-Luc reporter system was used for cell-based assay. The assay offers a non-radioactive based approach to determine binding of a compound to GPCRs. In this specific assay, the level of intracellular cyclic AMP which is modulated by activation or inhibition of the receptor is measured. The recombinant cells harbor luciferase reporter gene under the control of cAMP response element.
The above cells were grown in 96 well clear bottom white plates in Hams F12 medium containing 10% fetal bovine serum (FBS). Prior to the addition of compounds or standard agonist, cells were serum starved overnight. Increasing concentrations of test compounds were added along with EC20 of acetylcholine in OptiMEM medium to the cells. The incubation was continued at 37° C. in CO2 incubator for 4 hours. Medium was removed and cells were washed with phosphate buffered saline. The cells were lysed and luciferase activity was measured in a Luminometer. Luminescence counts in each concentrations of test item were normalized to the acetylcholine induced maximum response and the data was analyzed using Graphpad software. EC50 values of the compounds were defined as the concentration required in stimulating the luciferase activity by 50% in presence of EC20 of acetylcholine.

[2] = Rodent pharmacokinetic study; type: in vivo, Male Wistar rats; conditions: male, Wistar, rat, plasma; for bioavailability: oral 3 mg/kg vs i.v. 1 mg/kg
Protocol: Rodent Pharmacokinetic Study
Male Wistar rats (260±50 grams) were used as experimental animals. Animals were housed individually in polypropylene cage. Two days prior to study, male Wistar rats were anesthetized with isoflurane for surgical placement of jugular vein catheter. Rats were randomly divided for oral (3 mg/kg) and intravenous (i.v) (1 mg/kg) dosing (n=3/group) and fasted overnight before oral dosing (p.o.). However, rats allocated to intravenous (i.v.) dosing food and water was provided ad libitum.
At pre-determined point, blood was collected through jugular vein and replenished with an equivalent volume of normal saline. Collected blood was transferred into a labeled eppendorf tube containing 10 μL of heparin as an anticoagulant. Typically blood samples were collected at following time points: 0.08, 0.25, 0.5, 1, 2, 4, 6, 8, and 24 hours post dose. Blood was centrifuged at 4000 rpm for 10 minutes. Plasma was separated and stored frozen at −80° C. until analysis. The concentrations of the test compounds were quantified in plasma by qualified LC-MS/MS method using suitable extraction technique. The test compounds were quantified in the calibration range around 1-1000 ng/mL in plasma. Study samples were analyzed using calibration samples in the batch and quality control samples spread across the batch.
Pharmacokinetic parameters Cmax, AUCt, T1/2, clearance and bioavailability (F) were calculated by non-compartmental model using standard non-compartmental model by using Phoenix WinNonlin 6.0.2 or 6.0.3 version Software package.

[3] = Rodent brain penetration study; type: in vivo, Male Wistar rats; conditions: male, Wistar, brain and plasma, po; rat, 3 mg/kg, p.o. @ 1.0 hr, brain-plasma ratio; read-out: Single dose Rat Brain Penetration (Cb/Cp)
Protocol: Rodent Brain Penetration Study
Male Wistar rats (260±40 grams) were used as experimental animals. Three animals were housed in each cage. Animals were given water and food ad libitum throughout the experiment and maintained on a 12 hours light/dark cycle.
Brain penetration was determined in discrete manner in rats. One day prior to dosing day, male Wistar rats were acclimatized and randomly grouped according to their weight. At each time point (0.5, 1 and 2 hours) n=3 animals were used.
The test compounds were suitably preformulated and administered orally at (free base equivalent) 3 mg/kg. Blood samples were removed via cardiac puncture by using isoflurane anesthesia. The animals were sacrificed to collect brain tissue. Plasma was separated and brain samples were homogenized and stored frozen at −20° C. until analysis. The concentrations of the test compounds in plasma and brain were determined using LC-MS/MS method.
The test compounds were quantified in plasma and brain homogenate by qualified LC-MS/MS method using suitable extraction technique. The test compounds were quantified in the calibration range of 1-500 ng/mL in plasma and brain homogenate. Study samples were analyzed using calibration samples in the batch and quality control samples spread across the batch.

Male Wistar rats = experiment: Object recognition task model; type: in vivo; conditions: rat, p.o.; for Exploration time mean ± S.E.M, Familiar object / Exploration time mean ± S.E.M, Novel object: choice trial T2, 24 hours after T1
Protocol: Object Recognition Task Model
The cognition enhancing properties of compounds of this invention were estimated by using this model.
Male Wistar rats (8-10 weeks old) were used as experimental animals. Four animals were housed in each cage. Animals were kept on 20% food deprivation from a day prior to experimentation. Water was provided ad libitum throughout the experiment. Animals were maintained on a 12 hours light/dark cycle in temperature and humidity controlled room. The experiment was carried out in a circular or square arena made up of acrylic. Rats were habituated to individual arenas for up to 1 hour in the absence of any objects on day 1.
One group of 12 rats received vehicle and another set of animals received compound of the formula (I), before the familiar (T1) and choice (T2) trials. During the familiarization phase, (T1), the rats were placed individually in the arena for 3 minutes, in which two identical objects (a1 and a2) were positioned 10 cm from the wall. 24 hours after T1, trial for long-term memory test was performed. The same rats were placed in the same arena as they were placed in T1 trial. During the choice phase (T2) rats were allowed to explore the arena for 3 minutes in presence of a copy of familiar object (a3) and one novel object (b). During the T1 and T2 trial, explorations of each object (defined as sniffing, licking, chewing or having moving vibrissae whilst directing the nose towards the object at a distance of less than 1 cm) were recorded using stopwatch.
T1 is the total time spent exploring the familiar objects (a1+a2).
T2 is the total time spent exploring the familiar object and novel object (a3+b).
The object recognition test was performed as described by Ennaceur, A., Delacour, J., 1988, A new one-trial test for neurobiological studies of memory in rats˜Behavioural data, Behav. Brain Res., 31, 47-59.

| SMILES | EC50 [1] | AUC(0-t) ([2]; iv, i.v. 1 mg/kg) | half-life ([2]; iv, i.v. 1 mg/kg) | clearance ([2]; iv, i.v. 1 mg/kg) | bioavailability [2] | AUC(0-t) ([2]; oral 3 mg/kg) | Cmax ([2]; oral 3 mg/kg) | half-life ([2]; oral 3 mg/kg) | Kp at 1 h [3] | Inference (Male Wistar rats; 0.3 mg/kg) | Exploration time mean ± S.E.M, Familiar object (Male Wistar rats; 0.3 mg/kg) | Exploration time mean ± S.E.M, Novel object (Male Wistar rats; 0.3 mg/kg) | Inference (Male Wistar rats; 1 mg/kg) | Exploration time mean ± S.E.M, Familiar object (Male Wistar rats; 1 mg/kg) | Exploration time mean ± S.E.M, Novel object (Male Wistar rats; 1 mg/kg) |
| --- | --- | --- | --- | --- | --- | --- | --- | --- | --- | --- | --- | --- | --- | --- | --- |
| O=C(N[C@H]1CCCC[C@@H]1O)c1cc(Cc2ccc3c(c2)CCO3)c2cccnn12 [Example 4, N-(cis-1S,2S-2-Hydroxycyclohexyl)-5-(2,3-dihydrobenzofuran-5-ylmethyl)-pyrrolo[1,2-b]pyridazine-7-carboxamide] | 836 nM | 599 ± 58 ng·h/mL | 2.4 ± 0.9 h | 27 ± 3.4 mL/min/kg | 25 ± 4% | 457 ± 73 ng·h/mL | 105 ± 3 ng/mL | 3.9 ± 1.4 h | 1.31 ± 0.11 |  |  |  |  |  |  |
| COc1ccc(Cc2cc(C(=O)N[C@H]3CCCC[C@@H]3O)n3ncccc23)cc1 [Example 20, N-(cis-1S,2S-2-Hydroxycyclohexyl)-5-(4-methoxybenzyl)-pyrrolo[1,2-b]pyridazine-7-carboxamide] | 1340 nM | 1380 ± 390 ng·h/mL | 2.7 ± 0.8 h | 12.2 ± 3.1 mL/min/kg | 39 ± 3% | 1610 ± 139 ng·h/mL | 402 ± 98 ng/mL | 3.4 ± 0.7 h | 1.52 ± 0.15 |  |  |  | Active | 10.31 ± 1.07 s | 14.92 ± 1.11 s |
| O=C(N[C@H]1CCCC[C@@H]1O)c1cc(Cc2ccc(-n3cccn3)cc2)c2cccnn12 [Example 21, N-(cis-1S,2S-2-Hydroxycyclohexyl)-5-(4-pyrazol-1-ylbenzyl)-pyrrolo[1,2-b]pyridazine-7-carboxamide] | 179 nM | 3700 ± 768 ng·h/mL | 2.5 ± 0.7 h | 4.6 ± 0.9 mL/min/kg | 49 ± 12% | 5470 ± 1370 ng·h/mL | 687 ± 169 ng/mL | 3.4 ± 1.01 h | 0.24 ± 0.02 |  |  |  |  |  |  |

The next lines start with results.

| EC50 [1] | AUC(0-t) ([2]; iv, i.v. 1 mg/kg) | half-life ([2]; iv, i.v. 1 mg/kg) | clearance ([2]; iv, i.v. 1 mg/kg) | bioavailability [2] | AUC(0-t) ([2]; oral 3 mg/kg) | Cmax ([2]; oral 3 mg/kg) | half-life ([2]; oral 3 mg/kg) | Kp at 1 h [3] | SMILES | Inference (Male Wistar rats; 0.3 mg/kg) | Exploration time mean ± S.E.M, Familiar object (Male Wistar rats; 0.3 mg/kg) | Exploration time mean ± S.E.M, Novel object (Male Wistar rats; 0.3 mg/kg) | Inference (Male Wistar rats; 1 mg/kg) | Exploration time mean ± S.E.M, Familiar object (Male Wistar rats; 1 mg/kg) | Exploration time mean ± S.E.M, Novel object (Male Wistar rats; 1 mg/kg) |
| --- | --- | --- | --- | --- | --- | --- | --- | --- | --- | --- | --- | --- | --- | --- | --- |
| 989 nM | 3230 ± 625 ng·h/mL | 3.7 ± 0.3 h | 5 ± 0.7 mL/min/kg | 66 ± 3% | 6390 ± 312 ng·h/mL | 793 ± 86 ng/mL | 4.4 ± 2.3 h | 0.13 ± 0.02 | Cn1cc(-c2ccc(Cc3cc(C(=O)N[C@H]4CCCC[C@@H]4O)n4ncccc34)c(F)c2)cn1 [Example 34, N-(cis-1S,2S-2-Hydroxycyclohexyl)-5-[2-fluoro-4-(1-methyl-1H-pyrazol-4-yl)-benzyl]-pyrrolo[1,2-b]pyridazine-7-carboxamide] | Active | 10.35 ± 1.75 s | 15.63 ± 3.23 s |  |  |  |
| 653 nM | 951 ± 213 ng·h/mL | 3.5 ± 1.1 h | 17 ± 3 mL/min/kg | 49 ± 27% | 1390 ± 780 ng·h/mL | 132 ± 31 ng/mL | 3.6 ± 0.2 h | 1.9 ± 0.27 | O=C(N[C@H]1CCCC[C@@H]1O)c1cc(Cc2ccc(Br)c(F)c2)c2cccnn12 [Example 3, N-(cis-1S,2S-2-Hydroxycyclohexyl)-5-(4-bromo-3-fluorobenzyl)-pyrrolo[1,2-b]pyridazine-7-carboxamide] |  |  |  |  |  |  |
| 259 nM | 908 ± 164 ng·h/mL | 1.3 ± 0.2 h | 19 ± 3.8 mL/min/kg | 103 ± 0.7% | 2820 ± 20 ng·h/mL | 414 ± 21 ng/mL | 2.7 ± 0.1 h | 0.2 ± 0.001 | Cn1cc(-c2ccc(Cc3cc(C(=O)N[C@H]4CCCC[C@@H]4O)n4ncccc34)cc2F)cn1 [Example 33, N-(cis-1S,2S-2-Hydroxycyclohexyl)-5-[3-fluoro-4-(1-methyl-1H-pyrazol-4-yl)-benzyl]-pyrrolo[1,2-b]pyridazine-7-carboxamide] |  |  |  |  |  |  |
